Measurements taken from publication PMC2774623 (Biochemistry, 2008).
Blank lines part the entries; values can stand above or below the substance they belong to.

What was measured:
CK2 holoenzyme = assay: Effect of CFTR peptides on substrate phosphorylation by CK2 holoenzyme; format: biochemical, human
CK2α catalytic subunit [1] = details: β interaction with CK2α; cited from earlier work
CK2α catalytic subunit [2] = assay: Effect of CFTR peptides on substrate phosphorylation by CK2α catalytic subunit; format: biochemical, human; details: below 400 μM, murine NBD1, Figure 3A

inhibition of holoenzyme-mediated NBD1 phosphorylation (CK2 holoenzyme; peptide concentration up to 800 μM, Figure 3B): no inhibition
Substance: GTIKENIIGVSYDEYRYR [CFTR 500−518 ΔF508]

Substance: Δ wt: CK2 β-subunit; its interaction values with CK2α were from ref 29
ka (M^−1 s^−1) × 10^3 (CK2α catalytic subunit [1]): 22.7 M^−1 s^−1 × 10^3 | kd (s^−1) × 10^−3 (CK2α catalytic subunit [1]): 0.93 s^−1 × 10^−3

stimulation of I-2 and HSP90 phosphorylation by CK2 holoenzyme (CK2 holoenzyme; peptides 80 μM, I-2 2.5 μM, HSP90 0.5 μM, Figure 5A): no stimulation
Substance: GTIKENIIFGVSYDEYRYR [CFTR 500−518 wild type]
effect on NBD1 phosphorylation by CK2α at lower peptide concentrations (CK2α catalytic subunit [2]): slight stimulatory effect
